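Results reflect a 48-hour exposure of cells in 96-well plates to compound at five concentrations. At the GI50, growth is halved. The concentration for full growth arrest is given as TGI.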
What was measured:
Experiment in all cases: NCI-60 cell line screen, 48 h
A498 renal = tested on: A498 renal
A549 NSCLC = tested on: A549 NSCLC
CCRF-CEM leukemia = tested on: CCRF-CEM leukemia
NCI-H226 lung = tested on: NCI-H226 lung
SK-MEL-2 melanoma = tested on: SK-MEL-2 melanoma
SN12C renal = tested on: SN12C renal
SNB-19 CNS = tested on: SNB-19 CNS
U251 CNS = tested on: U251 CNS
UACC-62 melanoma = tested on: UACC-62 melanoma
BT-549 breast = tested on: BT-549 breast

Structure (SMILES) | TGI (A498 renal) [µM] | TGI (A549 NSCLC) [µM] | TGI (CCRF-CEM leukemia) [µM] | TGI (NCI-H226 lung) [µM] | TGI (SK-MEL-2 melanoma) [µM] | TGI (SN12C renal) [µM] | TGI (SNB-19 CNS) [µM] | TGI (U251 CNS) [µM] | TGI (UACC-62 melanoma) [µM] | TGI (BT-549 breast) [µM] | GI50 (BT-549 breast) [µM] | GI50 (NCI-H226 lung) [µM] | GI50 (SK-MEL-2 melanoma) [µM] | GI50 (SNB-19 CNS) [µM] | GI50 (U251 CNS) [µM] | GI50 (A498 renal) [µM] | GI50 (A549 NSCLC) [µM] | GI50 (CCRF-CEM leukemia) [µM] | GI50 (SN12C renal) [µM] | GI50 (UACC-62 melanoma) [µM]
CS(=O)(=O)CSCSSCS(C)(=O)=O | > 100 | > 100 | 70.5 | > 100 | 46.7 | > 93.3 | > 100 | > 100 | 47 | – | – | – | – | – | – | – | – | – | – | –
Cc1cc(C)nc(NS(=O)(=O)c2ccc(Nc3c4ccccc4nc4c(C(=O)N5CCN(CCOS(C)(=O)=O)CC5)cccc34)cc2)n1 | > 100 | > 100 | > 100 | > 100 | > 100 | > 100 | > 100 | > 100 | > 100 | – | – | – | – | – | – | – | – | – | – | –
CCOC(=O)C1(C#N)C(c2ccccc2)CC(O)(c2ccc(Cl)cc2)C(C(=O)c2ccc(Cl)cc2)C1c1ccccc1 (stereo not given) | – | > 100 | > 100 | > 100 | > 100 | > 100 | 90.8 | – | > 100 | – | – | – | – | – | – | – | – | – | – | –
COc1ccc(-c2c3c(n(C4OC(CO)C(O)C(O)C4O)c(=S)c2C#N)CCC3)cc1 (stereo not given) | – | > 100 | > 100 | – | > 100 | > 100 | > 100 | > 100 | > 100 | > 100 | – | – | – | – | – | – | – | – | – | –
O=C(N/N=C(/CCN1CCCC1)CC(c1ccccc1)c1c(O)c2ccccc2oc1=O)c1ccncc1 (stereo not given) | > 100 | > 100 | > 100 | > 100 | > 100 | > 100 | > 100 | > 100 | > 100 | – | – | – | – | – | – | – | – | – | – | –
CC(C)N1CC2CC(CN(C(=O)c3ccccc3)C2)C1 | > 100 | > 100 | > 100 | > 100 | > 100 | > 100 | > 100 | > 100 | > 100 | – | – | – | – | – | – | – | – | – | – | –
COC(=O)C1=C(C(=O)OC)SC(=CC#CC=C2SC(C(=O)OC)=C(C(=O)OC)S2)S1 | 34.7 | > 100 | > 100 | 35.4 | 64.3 | > 52.5 | 26.2 | 33.1 | 29.1 | – | – | – | – | – | – | – | – | – | – | –
Cc1cc(C)c2c(=O)cc(-c3cccc(F)c3)[nH]c2n1 | > 26.9 | > 100 | – | 7.4 | – | 20.3 | > 100 | > 84.1 | – | > 22 | – | – | – | – | – | – | – | – | – | –
CSC(SC)=C(C(=O)O)P(=O)(O)O | > 100 | > 100 | > 100 | > 100 | > 100 | > 100 | > 100 | – | > 100 | – | – | – | – | – | – | – | – | – | – | –
COC(=O)[C@@H]1CCCCC[C@H]2C(CO)=C(C)C(=O)C12 (stereo not given in full) | > 100 | > 100 | > 100 | > 100 | > 100 | > 100 | > 100 | > 100 | > 100 | – | – | – | – | – | – | – | – | – | – | –
CCCCOc1ccc(OCCCCCCCCCC[N+](C)(C)C)cc1 | 28.6 | 15.2 | 3.87 | 15.2 | 5 | 12.2 | 23.3 | 9.16 | 15.7 | – | – | – | – | – | – | – | – | – | – | –
O=C(OCCN=c1c2ccccc2ccc2ccccc12)c1ccccc1 | – | > 100 | > 100 | > 100 | > 100 | > 100 | > 100 | > 100 | > 100 | > 100 | – | – | – | – | – | – | – | – | – | –
CCc1c(CNc2ccc(C(=O)NC(CC(=O)O)C(=O)O)cc2)ccc2nc(N)nc(N)c12 (stereo not given) | – | > 1000 | > 1000 | > 1000 | > 1000 | > 1000 | > 1000 | > 1000 | > 1000 | > 1000 | 685 | > 1000 | > 1000 | 0.188 | 372 | – | – | – | – | –
O=c1[nH]c2nc3ccccc3nc2[nH]c1=O | – | > 100 | > 100 | > 100 | > 100 | > 100 | > 100 | > 100 | > 100 | – | – | – | – | – | – | – | – | – | – | –
N#C/C(=C/n1c(=S)[nH]c2ccc([N+](=O)[O-])cc21)C(N)=O | – | > 100 | > 100 | > 100 | > 100 | > 100 | > 100 | > 100 | > 100 | – | – | – | – | – | – | – | – | – | – | –
C=C1N(C=O)C(C)(C)N(O)C1(C)C | – | > 100 | – | > 100 | > 100 | > 100 | > 100 | > 100 | > 100 | – | – | – | – | – | – | – | – | – | – | –
COc1ccc(/C=c2\s/c(=C3/SC(=S)N(c4ccccc4)C3=O)n(-c3ccccc3)c2=O)cc1 | > 100 | > 100 | 77.4 | – | – | > 100 | > 100 | > 100 | > 100 | > 100 | – | – | – | – | – | – | – | – | – | –

Structure (SMILES) | TGI (A498 renal) [µM] | TGI (A549 NSCLC) [µM] | TGI (CCRF-CEM leukemia) [µM] | TGI (NCI-H226 lung) [µM] | TGI (SK-MEL-2 melanoma) [µM] | TGI (SN12C renal) [µM] | TGI (SNB-19 CNS) [µM] | TGI (U251 CNS) [µM] | TGI (UACC-62 melanoma) [µM] | TGI (BT-549 breast) [µM] | GI50 (BT-549 breast) [µM] | GI50 (NCI-H226 lung) [µM] | GI50 (SK-MEL-2 melanoma) [µM] | GI50 (SNB-19 CNS) [µM] | GI50 (U251 CNS) [µM] | GI50 (A498 renal) [µM] | GI50 (A549 NSCLC) [µM] | GI50 (CCRF-CEM leukemia) [µM] | GI50 (SN12C renal) [µM] | GI50 (UACC-62 melanoma) [µM]
NCCCCNCCCNC(=O)c1nc(-c2nc(CCN)sc2Cl)sc1Cl | > 100 | > 100 | > 100 | > 100 | – | > 100 | > 100 | > 100 | > 100 | – | – | – | – | – | – | – | – | – | – | –
COC(=O)C1(CCCCCBr)CCCCCCCCCCC1=O (stereo not given) | 64.7 | > 100 | 45 | 66.6 | 70.1 | > 100 | > 100 | > 100 | > 100 | – | – | – | – | – | – | – | – | – | – | –
CO[C@H]1SC[C@H](OC(C)=O)[C@H](OC(C)=O)[C@H]1OC(C)=O | – | > 100 | > 100 | > 100 | > 100 | > 100 | > 100 | > 100 | > 100 | > 100 | – | – | – | – | – | – | – | – | – | –
COc1cc(-c2n/c(=C\c3c(O)[nH]c4ccc(Cl)cc34)cc3c2=Nc2ccccc2-3)ccc1F | 15.2 | 3.38 | > 100 | 8.15 | – | 3.6 | 4.11 | 3.06 | 3.2 | 3.84 | 2.06 | 2.19 | – | 1.87 | 1.58 | 3.16 | 1.76 | 2.39 | 1.78 | 1.65
COc1ccc2nc(/C(N)=C\C#N)ccc2c1 | – | > 100 | > 100 | > 100 | > 100 | > 100 | > 100 | > 100 | > 100 | – | – | – | – | – | – | – | – | – | – | –
O=C(c1ccncc1)n1nc(-c2ccccc2)c(N=Nc2ccccc2[N+](=O)[O-])c1-c1ccccc1 | > 100 | > 100 | > 100 | – | > 100 | > 100 | > 100 | – | > 100 | – | – | – | – | – | – | – | – | – | – | –
CCC1=C(C(C)=O)[C@@H]2CCCCC[C@@H](C(=O)OC)C2C1=O (stereo not given in full) | > 100 | > 100 | > 100 | – | > 100 | > 100 | > 100 | > 100 | > 100 | – | – | – | – | – | – | – | – | – | – | –
CN(C)/N=C(/c1nc2ccc(Cl)cc2[nH]c1=O)C(O)c1ccc(C(O)/C(=N\N(C)C)c2nc3ccc(Cl)cc3[nH]c2=O)cc1 (stereo not given) | > 100 | > 100 | > 100 | – | > 100 | > 100 | > 100 | – | > 100 | – | – | – | – | – | – | – | – | – | – | –
O=S(=O)(O)c1ccc(N=Nc2ccc(N=Nc3ccc(/C=C/c4ccc(N=[N+]([O-])c5ccc(/C=C/c6ccc(N=Nc7ccc(N=Nc8ccc(S(=O)(=O)O)cc8)cc7)cc6S(=O)(=O)O)c(S(=O)(=O)O)c5)cc4S(=O)(=O)O)c(S(=O)(=O)O)c3)cc2)cc1 | > 100 | > 100 | > 100 | > 100 | > 100 | > 100 | > 100 | > 100 | > 100 | – | – | – | – | – | – | – | – | – | – | –
COc1cc2cc(C(=O)N3C[C@H](CCl)c4c3cc(N)c3ccccc43)[nH]c2c(OC)c1OC | 0.0318 | > 50 | > 50 | – | – | 0.0582 | 1.24 | > 50 | – | – | – | – | – | 0.0252 | 0.005 | – | – | 0.005 | 0.00698 | –
COc1ccccc1CN=C1Nc2ccncc2S(=O)(=O)N1c1ccccc1 | > 100 | > 100 | > 100 | > 100 | – | > 100 | > 100 | > 100 | > 100 | > 100 | – | – | – | – | – | – | – | – | – | –
CCOC(=O)c1s/c(=N\Nc2nc3ccccc3cc2C2OCCO2)n(Cc2ccccc2)c1C | > 100 | > 100 | > 100 | > 100 | > 100 | > 100 | > 100 | > 100 | > 100 | – | – | – | – | – | – | – | – | – | – | –
CCP(=O)(OC)C1=CCN(C(=O)OCC[Si](C)(C)C)CC1 (stereo not given) | > 100 | > 100 | > 100 | > 100 | > 100 | – | > 100 | > 100 | > 100 | – | – | – | – | – | – | – | – | – | – | –
Cc1cc2ncn(C3CCCCO3)c2cc1C (stereo not given) | – | > 100 | > 100 | > 100 | > 100 | > 100 | > 100 | > 100 | > 100 | > 100 | – | – | – | – | – | – | – | – | – | –
Cn1c(=O)c(-c2ccccc2)c(O)c2ccccc21 | > 100 | > 100 | > 100 | > 100 | – | > 100 | > 100 | > 100 | – | > 100 | – | – | – | – | – | – | – | – | – | –
O=C1N=C2SC(=S)NC(=S)N2NC12c1ccccc1-c1ccccc12 | 6.58 | > 10 | > 10 | – | – | > 10 | – | > 10 | > 10 | > 10 | – | – | – | – | – | – | – | – | – | –

Source: PubChem BioAssay (NCI)
